{"source": "paper PMC6078345", "about": "“Location and functions of Inebriated in the Drosophila eye” (Biology Open, 2018)", "target": "T1, Ine-P1 (Inebriated long isoform; Ine-P1::GFP, Ine-P1-EGFP) (Drosophila melanogaster, UniProt Q9VR07)", "T1 construct": "full-length long isoform, GFP/EGFP fusion, cRNA in Xenopus laevis oocytes; 943 aa", "T1 sequence (Q9VR07 1-943)": "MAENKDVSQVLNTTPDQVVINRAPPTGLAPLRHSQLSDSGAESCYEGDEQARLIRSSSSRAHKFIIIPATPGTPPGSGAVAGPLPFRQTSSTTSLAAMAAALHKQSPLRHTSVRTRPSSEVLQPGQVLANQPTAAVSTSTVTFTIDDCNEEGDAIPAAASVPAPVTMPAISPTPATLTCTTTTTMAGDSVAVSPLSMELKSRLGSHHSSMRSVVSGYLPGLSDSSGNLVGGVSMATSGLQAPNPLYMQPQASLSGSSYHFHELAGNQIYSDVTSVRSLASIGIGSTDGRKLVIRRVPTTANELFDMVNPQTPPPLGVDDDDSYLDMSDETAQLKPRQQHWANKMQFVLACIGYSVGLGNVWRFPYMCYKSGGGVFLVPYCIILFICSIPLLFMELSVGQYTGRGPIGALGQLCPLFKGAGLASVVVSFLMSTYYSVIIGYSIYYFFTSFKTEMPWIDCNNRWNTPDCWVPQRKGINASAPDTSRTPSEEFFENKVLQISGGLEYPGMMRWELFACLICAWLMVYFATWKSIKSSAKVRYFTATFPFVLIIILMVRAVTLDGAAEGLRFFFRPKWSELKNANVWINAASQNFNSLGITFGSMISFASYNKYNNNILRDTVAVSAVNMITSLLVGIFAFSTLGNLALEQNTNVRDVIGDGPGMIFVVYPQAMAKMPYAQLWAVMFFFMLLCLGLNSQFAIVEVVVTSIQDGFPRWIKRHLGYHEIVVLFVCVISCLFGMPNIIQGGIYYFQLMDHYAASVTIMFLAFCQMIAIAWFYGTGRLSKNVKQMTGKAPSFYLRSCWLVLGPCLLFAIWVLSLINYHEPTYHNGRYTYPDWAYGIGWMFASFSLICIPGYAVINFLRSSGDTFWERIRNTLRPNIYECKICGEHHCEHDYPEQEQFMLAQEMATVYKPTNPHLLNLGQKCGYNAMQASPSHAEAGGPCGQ", "assay": "voltage-clamp current in Xenopus oocytes", "type": "cell-based", "conditions": "normal frog Ringer, -100 mV; dose-dependent current, 7 to 100 mM; few oocytes; transport only suggested"}
{"compound": "NCC(=O)O", "note": "[glycine]", "values": [{"measurement": "voltage-clamp current in Xenopus oocytes", "value": "glycine on Ine-P1-EGFP transfected oocytes revealed an obvious dose-dependent signal"}]}
